Test results as given in US20230382926A1, “COMPOUNDS AND USES THEREOF” (The University of The West Indies, priority 2022, published 2023).

Tests used:
[1] = system: clinical isolate CR-K. pneumoniae 7225; test: Non-lethal mouse peritonitis infection model; type: in vivo, Swiss albino mice; settings: monotherapy at 10 mg kg^−1; preliminary dosing experiments
Experimental: For both lethal and non-lethal infection models involving Carbapenem resistant Klebsiella pneumoniae suitable strains, number of mice per treatment and bacterial infection dose were predetermined in preliminary experiments.
Each mouse (n=6 per group) received an intraperitoneal (i.p.) injection of 200 μl of bacterial suspension (1×10^4 CFU ml^−1).
Mice were then treated once daily for two subsequent days (i.e. 24 h and 48 h). Twenty-four-hours after the last dose, the mice were euthanized via cervical dislocation and their spleen and liver excised, homogenized in PBS and plated onto Hichrome™ Klebsiella selective media (HiMedia Laboratories, PA, USA). The plates were incubated at 35° C. for 24 h and bacterial counts were determined (CFU g^−1 organ).
Based on the significance of the SP-azaBIMs to restore the in vitro efficacy of antibiotics against high priority pathogenic bacteria, we examined if these compounds could provide proof of concept that they could be used to treat in vivo infections. To test this, we performed both non-lethal and lethal intraperitoneal infection models in Swiss Albino mice.
There was a significant reduction in the K. pneumoniae load in both the liver (FIG. 2a) and spleen (FIG. 2b) for the combination therapies compared to the respective antibiotic monotherapies. […] Colistin (Col) (10 mg kg^−1) was used as the positive control in this case. K. pneumoniae load in the liver (FIG. 2a) and spleen (FIG. 2b) was determined by selective plating on Hichrome™ Klebsiella selective media. Data bars represent the average (n=6 mice per treatment group)±standard error.

[2] = system: Klebsiella pneumoniae ATCC BAA-2814; test: Gene expression analysis by quantitative reverse transcription PCR; type: cell-based; settings: for ROB gene expression compared to untreated cells / soxS gene expression compared to untreated cells: Meropenem only 0.25 MIC (8 μg mL^−1)
Experimental: Cell treatment and RNA extraction: Overnight cultures of Klebsiella pneumoniae ATCC BAA-2814 grown on Brain Heart Infusion (BHI) agar was harvested and washed in phosphate buffer saline (pH=7.4) twice. Fresh Brain Heart infusion broth was inoculated with K. pneumoniae cells to a final concentration of 10^6 CFU mL^−1. Cells were subjected to the following treatments: T0—Vehicle only (ddH2O); T1—Meropenem only (0.25 MIC; 8 μg mL^−1); T2—Meropenem 0.25 MIC+SP-azaBIM 136 (2 ug mL^−1). Treated cells were incubated at 35° C. at 200 rpm and total RNA was extracted at 1 h and 6 h post exposure using TRIzol reagent (Life Technologies) following the manufacturer's protocol before eluting in DEPC treated water. Three biological replicates were included for each treatment.
Quantitative reverse transcription PCR analysis: Reverse transcription was done using the GoScript Reverse Transcriptase Kit (Promega, USA) employing a mixture (1:1) of random and oligo dT primers with 2 μg RNA as starting material in a 20-μL reaction following the manufacturers protocols. cDNA samples were then quantified by real-time PCR using specific primers in an Applied Biosystems 7500 Fast Real-Time PCR system (Life Technologies Corp., USA) and the data analysed using the 2^(−ΔΔct) method. Thermal cycling was performed using a two-step PCR amplification standard procedure at 95° C. for 30 s and 35 cycles of 95° C. for 5 s and 60° C. for 30 s. The expression levels of all the genes were normalized using the K. pneumoniae RNA polymerase sigma factor (rpoD) gene as an internal standard.
To examine this hypothesis, we investigated the expression of genes in K. pneumoniae ATCC […] that were affected by SP-azaBIM 136 treatment. Expression of key transcription factors and their associated downstream resistance and pathogenicity genes was examined in Klebsiella pneumoniae cells treated with meropenem and a combination of meropenem and SP-azaBIM 136. Cells in the exponential phase were either treated with 0.25 MIC (8 μg mL^−1) of Meropenem only or a combination of 0.25 MIC meropenem and 10 μg mL^−1 of SP-azaBIM 136. Untreated cells served as the control for baseline gene expression. Cells were exposed to each agent for 1 h and 6 h, after which the total RNA was extracted, and cDNA synthesis performed. […] The addition of SP-azaBIM 136 was theorized to revert the expression of the relevant genes closer to baseline expression levels.

[3] = system: Carbapenem resistant Acinetobacter baumannii; test: Broth microdilution minimum inhibitory concentration; type: cell-based; settings: compound alone
Procedure, shortened: (§1)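 Broth microdilution followed CLSI M07-A10, using 11 two-fold dilutions (top 1028 μg/mL, 2% DMSO final) and an inoculum of 2×10^5 to 8×10^5 CFU/mL. Wells were scored visually. MIC is the lowest concentration with no growth, tested in duplicate.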

[4] = system: Carbapenem resistant Klebsiella pneumoniae; test: as above; type: cell-based; settings: compound alone
Procedure, shortened: as §1

[5] = system: Methicillin resistant Staphylococcus aureus; test: as above; type: cell-based; settings: compound alone
Procedure, shortened: as §1

[6] = system: Multidrug resistant Pseudomonas aeruginosa; test: as above; type: cell-based; settings: compound alone
Procedure, shortened: as §1

[7] = system: Vancomycin resistant Enterococcus faecalis; test: as above; type: cell-based; settings: compound alone
Procedure, shortened: as §1

MRSA = test: Rescue concentration of substituted phenyl azaindole derivatives; type: cell-based, Staphylococcus aureus; settings: Amoxicillin fixed at 2 μg/mL
Procedure, shortened: (§2)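 Modified checkerboard MIC: fixed CLSI susceptible-breakpoint antibiotic concentration plus twofold dilution series of SP-azaBIM, 10^6 CFU/ml in ca-MHB, 35° C, 24 h aerobic. Only antibiotics to which the strain was resistant were tested. Rescue concentration = lowest compound concentration giving 99.99% growth reduction (visual) at breakpoint.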

K. pneumoniae = test: as above; type: cell-based
Procedure, shortened: as §2

P. aeruginosa = test: as above; type: cell-based; settings: Imipenem fixed at 1 μg/mL
Procedure, shortened: as §2

| Structure (SMILES) | Efficacy of antibiotic monotherapy against K. pneumoniae 7225 [1] | mexA efflux pump gene expression above untreated cells (peak) ([2]; Meropenem only) [folds] | norB efflux pump gene expression above untreated cells (peak) ([2]; Meropenem only) [folds] | ROB gene expression compared to untreated cells ([2]; 1 h) | ROB gene expression compared to untreated cells ([2]; 6 h) [folds] | soxS gene expression compared to untreated cells ([2]; 6 h) [folds] | soxS gene expression compared to untreated cells ([2]; initial (1 h)) [folds] | MIC [3] [µg/mL] | MIC [4] [µg/mL] | MIC [5] [µg/mL] | MIC [6] [µg/mL] | MIC [7] [µg/mL] | Rescue concentration, MRSA Amoxicillin (2 μg/mL) (MRSA) [µg/mL] | Rescue concentration, K. pneumoniae Ciprofloxacin (1 μg/mL) (K. pneumoniae; Ciprofloxacin fixed at 1 μg/mL) [µg/mL] | Rescue concentration, K. pneumoniae Imipenem (1 μg/mL) (K. pneumoniae; Imipenem fixed at 1 μg/mL) [µg/mL] | Rescue concentration, P. aeruginosa Imipenem (1 μg/mL) (P. aeruginosa) [µg/mL] |
| --- | --- | --- | --- | --- | --- | --- | --- | --- | --- | --- | --- | --- | --- | --- | --- | --- |
| C[C@@H](O)[C@H]1C(=O)N2C(C(=O)O)=C(S[C@@H]3CN[C@H](C(=O)N(C)C)C3)[C@H](C)[C@H]12 [Meropenem, reference compound] | ineffective | 8.7 | 2.2 | approximately 3 folds | 12 | 18 | 3 |  |  |  |  |  |  |  |  |  |
| O=Cc1cccc(C(O)c2c[nH]c3c(Cl)nccc23)c1 (stereo not shown) [iso-7Cl-6aza-OH, 3-((7-chloro-1H-pyrrolo[2,3-c]pyridin-3-yl)(hydroxy)methyl)benzaldehyde] |  |  |  |  |  |  |  | < 1020 | < 1020 | < 1020 | < 1020 | < 1020 | 32 | <256 | <256 | <256 |
